Results reported in PubChem BioAssay AID1963827 (Molecular Pharmacology Branch, DTP, NCI, 2024).

Test system: 994946-033-R-J1-PDC complex spheroid viability
Assay: Anticancer human tumor 994946-033-R-J1-PDC patient-derived melanoma cell line growth inhibition [POLQ]
Conditions: for IC50: curve of first compound; for viability, T/C: stronger effect = lower value
In short: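 Patient-derived tumour cells were co-cultured with HUVEC and mesenchymal stem cells as multicellular spheroids at 37 °C. They were treated with POLQ inhibitors (novobiocin, ART-558, RP6685) alone or combined with other agents. Top concentrations were at or near clinical Cmax (otherwise 10 microM; SN-38 at 1 microM), decreasing in half-log steps.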

[1] = second compound 0.0316 µM, first compound 0.0316 µM
[2] = second compound 0.0316 µM, first compound 0.1 µM
[3] = second compound 0.0316 µM, first compound 0.316 µM
[4] = second compound 0.0316 µM, first compound 1 µM
[5] = second compound 0.0316 µM, first compound 3.16 µM
[6] = second compound 0.0316 µM, first compound 10 µM
[7] = second compound 0.1 µM, first compound 0.0316 µM
[8] = second compound 0.1 µM, first compound 0.1 µM
[9] = second compound 0.1 µM, first compound 0.316 µM
[10] = second compound 0.1 µM, first compound 1 µM
[11] = second compound 0.1 µM, first compound 3.16 µM
[12] = second compound 0.1 µM, first compound 10 µM
[13] = second compound 0.316 µM, first compound 0.0316 µM
[14] = second compound 0.316 µM, first compound 0.1 µM
[15] = second compound 0.316 µM, first compound 0.316 µM
[16] = second compound 0.316 µM, first compound 1 µM
[17] = second compound 0.316 µM, first compound 3.16 µM
[18] = second compound 0.316 µM, first compound 10 µM
[19] = second compound 1 µM, first compound 0.0316 µM
[20] = second compound 1 µM, first compound 0.1 µM
[21] = second compound 1 µM, first compound 0.316 µM
[22] = second compound 1 µM, first compound 1 µM
[23] = second compound 1 µM, first compound 3.16 µM
[24] = second compound 1 µM, first compound 10 µM
[25] = second compound 3.16 µM, first compound 0.0316 µM
[26] = second compound 3.16 µM, first compound 0.1 µM
[27] = second compound 3.16 µM, first compound 0.316 µM
[28] = second compound 3.16 µM, first compound 1 µM
[29] = second compound 3.16 µM, first compound 3.16 µM
[30] = second compound 3.16 µM, first compound 10 µM
[31] = second compound 10 µM, first compound 0.0316 µM
[32] = second compound 10 µM, first compound 0.1 µM
[33] = second compound 10 µM, first compound 0.316 µM
[34] = second compound 10 µM, first compound 1 µM
[35] = second compound 10 µM, first compound 3.16 µM
[36] = second compound 10 µM, first compound 10 µM
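Further: spheroids exposed to drugs for 7 days.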
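Wherever viability, T/C is given: 100% = DMSO vehicle treated spheroids.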

Structure (SMILES): C=CC(=O)N1CCN(c2nc(=O)n(-c3c(C)ccnc3C(C)C)c3nc(-c4c(O)cccc4F)c(F)cc23)C(C)C1 (centres undefined) + COC1C(OC(N)=O)C(O)C(Oc2ccc3c(O)c(NC(=O)c4ccc(O)c(CC=C(C)C)c4)c(=O)oc3c2C)OC1(C)C
- IC50 (second compound 0.0316 µM): > 10 µM
- IC50 (second compound 0.1 µM): > 10 µM
- IC50 (second compound 0.316 µM): > 10 µM
- IC50 (second compound 1 µM): > 10 µM
- IC50 (second compound 3.16 µM): > 10 µM
- IC50 (second compound 10 µM): > 10 µM
- viability, T/C [1]: 80.4%
- viability, T/C [2]: 110%
- viability, T/C [3]: 104%
- viability, T/C [4]: 101%
- viability, T/C [5]: 104%
- viability, T/C [6]: 95.5%
- viability, T/C [7]: 102%
- viability, T/C [8]: 105%
- viability, T/C [9]: 87.5%
- viability, T/C [10]: 99.5%
- viability, T/C [11]: 90.8%
- viability, T/C [12]: 114%
- viability, T/C [13]: 92.8%
- viability, T/C [14]: 111%
- viability, T/C [15]: 119%
- viability, T/C [16]: 99%
- viability, T/C [17]: 138%
- viability, T/C [18]: 104%
- viability, T/C [19]: 112%
- viability, T/C [20]: 93.5%
- viability, T/C [21]: 118%
- viability, T/C [22]: 85.9%
- viability, T/C [23]: 112%
- viability, T/C [24]: 75.7%
- viability, T/C [25]: 94%
- viability, T/C [26]: 108%
- viability, T/C [27]: 113%
- viability, T/C [28]: 105%
- viability, T/C [29]: 93.3%
- viability, T/C [30]: 115%
- viability, T/C [31]: 98.1%
- viability, T/C [32]: 81.7%
- viability, T/C [33]: 99.9%
- viability, T/C [34]: 124%
- viability, T/C [35]: 86.9%
- viability, T/C [36]: 105%

Structure (SMILES): C#Cc1c(F)ccc2cc(O)cc(-c3ncc4c(N5CC6CCC(C5)N6)nc(OCC56CCCN5CC(F)C6)nc4c3F)c12 (centres undefined) + COC1C(OC(N)=O)C(O)C(Oc2ccc3c(O)c(NC(=O)c4ccc(O)c(CC=C(C)C)c4)c(=O)oc3c2C)OC1(C)C
- IC50 (second compound 0.0316 µM): 5.06 µM
- IC50 (second compound 0.1 µM): 5.48 µM
- IC50 (second compound 0.316 µM): 4.01 µM
- IC50 (second compound 1 µM): 5.89 µM
- IC50 (second compound 3.16 µM): 4.14 µM
- IC50 (second compound 10 µM): 5.33 µM
- viability, T/C [1]: 116%
- viability, T/C [2]: 121%
- viability, T/C [3]: 87.2%
- viability, T/C [4]: 139%
- viability, T/C [5]: 76.4%
- viability, T/C [6]: 11.8%
- viability, T/C [7]: 107%
- viability, T/C [8]: 98.7%
- viability, T/C [9]: 78.8%
- viability, T/C [10]: 110%
- viability, T/C [11]: 82.7%
- viability, T/C [12]: 14.3%
- viability, T/C [13]: 106%
- viability, T/C [14]: 99.7%
- viability, T/C [15]: 96.2%
- viability, T/C [16]: 84.7%
- viability, T/C [17]: 61%
- viability, T/C [18]: 10.2%
- viability, T/C [19]: 77.9%
- viability, T/C [20]: 114%
- viability, T/C [21]: 81.7%
- viability, T/C [22]: 71.5%
- viability, T/C [23]: 82.5%
- viability, T/C [24]: 26.6%
- viability, T/C [25]: 98.2%
- viability, T/C [26]: 92.7%
- viability, T/C [27]: 105%
- viability, T/C [28]: 94.7%
- viability, T/C [29]: 62.3%
- viability, T/C [30]: 9.63%
- viability, T/C [31]: 94.8%
- viability, T/C [32]: 93.2%
- viability, T/C [33]: 65.9%
- viability, T/C [34]: 92%
- viability, T/C [35]: 86.3%
- viability, T/C [36]: 6.26%
